{"source": "patent US6888015B2", "about": "“Sphingolipid synthesis inhibitor” (Japan Science and Technology Agency, priority 2001, dated 2005)", "key": {"SM synthase": {"tested_on": "SM synthase", "assay": "SM synthase enzyme assay, CHO membrane fraction", "assay_type": "biochemical, Chinese hamster"}, "[1]": {"tested_on": "SM synthesis in BFA-treated cells", "assay": "[14C]serine labeling in BFA-treated cells (ER and Golgi merged)", "assay_type": "cell-based, Chinese hamster", "conditions": "1 μM; cells treated with 1 μg/mL BFA (FIG. 5)", "description": "For the metabolic labeling by [^14C] serine in BFA-treated cells, the cells are preincubated with 1 μg/mL BFA in Nutridoma medium at 33° C. for 30 minutes, then, treated with or without 1 μM HPA-12 in the presence of 1 μg/mL BFA at 4° C. for 15 minutes prior to addition of [^14C] serine."}, "CHO cells": {"tested_on": "CHO cells", "assay": "Viability of cells (MTT)", "assay_type": "cell-based, Chinese hamster", "conditions": "10 μM; data not shown", "description": "CHO cells are seeded at a density of 2.0×10^4 per one hole of a 48-hole culture plate in 500 μL of F12 medium containing 10% NBS, and cultivated at 33[…] overnight. Then, the medium is changed to 500 μL of Nutridoma medium containing various concentrations of HPA compounds at 33° C. for 24 hours, and the viability of cells are determined using MTT as disclosed in Document 9."}}}
{"smiles": "CCCCCCCCCCCC(=O)NC(CO)CC(O)c1ccccc1", "note": "(centres unmarked) [HPA-12, N-(3-hydroxy-1-hydroxymethyl-3-phenylprol)dodecaneamide]", "values": [{"measurement": "C6-NBD-SM formed (SM synthase activity)", "setting": "SM synthase; 20 μM, substrate C6-NBD-Cer", "value": "168.1 ± 1.7 pmol/mg protein/10 minutes"}, {"measurement": "inhibition of SM synthase", "setting": "SM synthase; 20 μM, substrate C6-NBD-Cer", "value": "Neither of SM synthase nor GlcCer synthase is inhibited"}, {"measurement": "inhibition of SM synthase activity", "setting": "SM synthase; substrate C5-DMB-Cer, data not shown", "value": "not observed"}, {"measurement": "formation of [14C]serine-derived SM", "setting": "[1]", "value": "no longer inhibits"}, {"measurement": "toxicity to CHO cells", "setting": "CHO cells", "value": "highly toxic"}]}
